Data published in patent US20200037609A1, “HERBICIDAL COMPOSITIONS AND METHODS OF USE THEREOF” (The Regents of the University of California, priority 2017, published 2020).

Columns and labels:
Arabidopsis thaliana = test: Agar-based plant growth inhibition assay on MS media; format: in vivo; settings: for growth of A. thaliana on MS media: 50 μM aspterric acid
Method: Agar-based growth inhibition assays were carried out on MS media (4.33 g Murashige and Skoog basal medium, 20 g sucrose, and 10 g Agar per liter MS media, pH was adjusted to 5.7 using KOH). Aspterric acid at a final concentration of 50 μM was included in the experimental media. DMSO at final concentration of 1% was used to increase the solubility of aspterric acid. The control MS media contained the same amount of DMSO, but no aspterric acid. Sterilized Arabidopsis thaliana seeds were plated on MS media. After 2 days of cold treatment at 4° C. in the dark, plates were transferred to standard growing condition (16 hour light and 8 hour dark at 22° C.) to geminate. After germination on day 4, the seedlings were transferred to MS media containing 50 μM aspterric acid. MS media containing only DMSO was used as a control. Images were taken at day 8 and day 12 to assay growth inhibition activity of aspterric acid on Arabidopsis thaliana.
Growth inhibition assay of plants on plates or in the tubes. MS (2.16 g/L Murashige and Skoog basal medium, 8 g/L sucrose, 8 g/L agar) media was used to test the growth inhibition of AA on A. thaliana, Solanum lycopersicum, and Zea mays. A. thaliana, S. lycopersicum, G. max and Z. mays were grown under long day condition (16/8 h light/dark) using cool-white fluorescence bulbs as the light resource at 23° C. AA was dissolved in ethanol and added to the media before inoculating strains or growing plants. The media of control treatment contains the same amount of ethanol, but without AA.

[1] = target: T1, Arabidopsis thaliana housekeeping DHAD (pDHAD) (Arabidopsis thaliana, UniProt Q9LIR4); test: DHAD enzymatic inhibition assay (phenylhydrazine derivatization, LC-MS); format: biochemical
T1 construct: […]; 6xHis (N); made in house; host or cells: E. coli BL21 (DE3)
T1 sequence (Q9LIR4 35-608): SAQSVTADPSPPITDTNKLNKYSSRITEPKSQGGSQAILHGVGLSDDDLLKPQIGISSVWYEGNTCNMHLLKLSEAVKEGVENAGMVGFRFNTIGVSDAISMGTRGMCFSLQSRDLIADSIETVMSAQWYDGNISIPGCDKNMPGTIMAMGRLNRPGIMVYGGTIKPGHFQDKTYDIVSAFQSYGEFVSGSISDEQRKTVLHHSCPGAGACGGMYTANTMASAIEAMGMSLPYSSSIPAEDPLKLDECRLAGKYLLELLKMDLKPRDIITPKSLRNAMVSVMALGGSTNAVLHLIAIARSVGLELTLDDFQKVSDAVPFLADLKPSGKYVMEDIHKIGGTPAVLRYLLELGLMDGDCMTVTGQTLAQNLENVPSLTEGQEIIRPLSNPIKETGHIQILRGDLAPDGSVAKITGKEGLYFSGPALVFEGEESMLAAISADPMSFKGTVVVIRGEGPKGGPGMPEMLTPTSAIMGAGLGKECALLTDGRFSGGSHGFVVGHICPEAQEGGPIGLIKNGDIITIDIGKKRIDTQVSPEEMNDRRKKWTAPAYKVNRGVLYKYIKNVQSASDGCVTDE
Method: Enzymatic activity reactions were carried out in […] volumes containing 50 mM storage buffer, 10 mM (±)-Sodium 2,3-dihydroxyisovalerate hydrate (DHAD substrate) and 1 μM purified DHAD enzyme. After incubation for 30 minutes at 30° C., the reaction was stopped by adding an equal volume of ethanol. 1/10 volumes of 100 mM phenylhydrozine was added at room temperature for 30 minutes to derivatize the DHAD-synthesized molecule (3-methyl-2-oxo-butanoic acid) into a detectable derivatization product (DDP). See FIG. 5A for an overview of reactions.
Inhibition assays were carried out according to the reactions described above. First, phenylhydrozine was added to 3-methyl-2-oxo-butanoic acid to validate the derivatization reaction. Next, DHAD substrate was incubated with 1 μM purified DHAD enzyme from A. thaliana (with or without DMSO) then derivatized with phenylhydrozine to validate the activity of the purified DHAD enzyme. Finally, DHAD substrate was incubated with 1 μM purified DHAD enzyme from A. thaliana and 1 mM aspterric acid in DMSO then derivatized with phenylhydrozine to determine if DHAD was inhibited by aspterric acid. 20 μL of the reaction mixture was subject to LC-MS analysis, and DDP was detected by UV absorption at 350 nm. The area of the peak that corresponded to DDP was used to quantify the amount of (±)-Sodium 2,3-dihydroxyisovalerate hydrate that was converted into DDP.
Inhibition assays were carried out according to the reactions described above by incubating purified DHAD enzymes (either the housekeeping DHAD from Aspergillus terreus, the housekeeping DHAD from Arabidopsis thaliana, or AstD from Aspergillus terreus) with aspterric acid at various concentrations. For AstD, up to 8 mM of aspterric acid was tested. […] The half maximal inhibitory concentration (IC50) and the effect of aspterric acid on the enzyme kinetics of each purified DHAD enzyme was calculated based on the initial reaction rates observed in the inhibition assays.
Biochemical assay of DHADs. […] The area of the HPLC peak with UV absorption at 350 nm was used to quantify the amount of 6. […]

CC(C)=C1CC[C@]23CO[C@H](C2)[C@@](O)(C(=O)O)CC[C@@H]13 [aspterric acid]
growth of A. thaliana on MS media (Arabidopsis thaliana): significant vegetative growth inhibition | growth of A. thaliana on MS media (Arabidopsis thaliana; listed as AA): potently inhibit | growth of wild-type A. thaliana on media (Arabidopsis thaliana; 100 μM AA): strongly inhibited | pDHAD activity in presence of AA ([1]; 10 μM AA): abolished pDHAD activity | DHAD enzymatic activity in presence of aspterric acid ([1]; 1 mM aspterric acid, 1 μM enzyme): completely inhibited | mode of inhibition of pDHAD ([1]; kinetic analyses): competitive inhibitor
